For two molecules, IC50 results are on record in PMC11732987, “Enantioselective OTUD7B fragment discovery through chemoproteomics screening and high-throughput optimisation” (Communications Chemistry, 2025).

What is called IC50 is the concentration at which inhibition is half-maximal. Read a low IC50 as greater potency.

Assay [1] has as its target T1, OTUD7B (Homo sapiens, UniProt Q6GQQ9).
T1 sequence (Q6GQQ9 129-438): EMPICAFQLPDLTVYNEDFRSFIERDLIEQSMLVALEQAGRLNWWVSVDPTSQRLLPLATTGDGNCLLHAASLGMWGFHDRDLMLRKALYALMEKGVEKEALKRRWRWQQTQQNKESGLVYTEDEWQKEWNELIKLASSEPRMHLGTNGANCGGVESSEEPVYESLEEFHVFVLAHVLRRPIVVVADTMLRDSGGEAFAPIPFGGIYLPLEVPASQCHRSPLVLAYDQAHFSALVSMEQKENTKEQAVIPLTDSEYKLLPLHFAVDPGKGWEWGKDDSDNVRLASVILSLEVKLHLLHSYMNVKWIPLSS
Put plainly: Ub-Rho110Gly DUB activity assay; also intact protein LC-MS kinetics (kinact/KI […] ^-1 s^-1), lysate ABPP (TE50 […]). The format is biochemical. Set-up: OTUD7B aa129-438 (intact protein LC-MS).

Assay [2] has as its target T1, OTUD7B. Nature of the assay: Ub-Rho110Gly DUB activity assay; also intact protein LC-MS kinetics (kinact/KI […] ^-1 s^-1), SiteID LC-MS/MS, lysate ABPP (TE50 […]). It counts as biochemical. On the set-up: OTU domain; OTUD7B aa129-438 (intact protein LC-MS), aa129–538 (SiteID).

In the case of `O=C(CCl)N[C@@H]1CCCc2ccccc21` [compound 30], the IC50 in assay [1] stood at 58.3 µM.

In the case of `O=C(CCl)N[C@H]1CCCc2ccccc21` [compound 29], in assay [2], 3.5 µM corresponded to half-maximal inhibition (IC50).
